Key:
[1] = test system: Normal human plasma diluted 10-fold; experiment: Clot lysis assay (Example 1), turbidity at 650 nm; type: biochemical; details: in the presence of 10 nM FVIIa; t-PA 8 nM
Protocol: Clot lysis assay: Normal human plasma diluted 10-fold with buffer (20 mM HEPES, 150 mM NaCl, 5 mM CaCl, pH 7.4) containing Innovin (Dade Behring, 2000-fold dilution), rFVIIa (Novo Nordisk A/S Bagsvaerd, Denmark, various concentrations) and t-PA (American Diagnostica, 8 nM) was added to 96-well ELISA plates and turbidity at 650 nm was measured over time at room temperature. Where indicated, epsilon-Aminocaproic Acid (Sigma, various concentrations) was included.

[2] = test system: Normal human plasma (NHP); experiment: Clot lysis assay (Example 2), clot survival in NHP and NHP diluted 1:2 with plasma expander; type: biochemical; details: in combination with 40 nM FVIIa
Protocol: Clot lysis assay: Normal human plasma (NHP) and NHP diluted 1:2 with plasma expander Macrodex or HES 200/0.5 used clinically for maintaining blood pressure under surgical procedures was mixed with lipidated recombinant TF (Innovin 1:60,000), CaCl2 10 mM, +/−FVIIa 40 nM, phosfatidylcolin/phosphateidylserine vesicles 6 μM, tPA […] and +/−the indicated doses of e-aminocaproic acid (EACA). Clot survival was measured as the time for clot start until the time for clot lysis.

Question: With `NCCCCCC(=O)O` [EACA, epsilon-aminocaproic acid] as the compound, how does the “effect on clot lysis time” value [1] read?
Answer: further prolongation of the clot lysis time

Question: And the “epsilon-Aminocaproic Acid concentration at which effect on clot lysis time was optimal” value [1]?
Answer: 1 µM

Question: And the “effect on clot survival time” value [2]?
Answer: increase in clot survival time

— patent publication US20060293241A1, “Pharmaceutical composition comprising a factor VII polypeptide and epsilon-aminocaproic acid” (Novo Nordisk HealthCare A/G, priority 2001, published 2006)
